Test results published in patent US7241913B2, “Ruthenium compounds” (The University Court of the University of Edinburgh, priority 2003, dated 2007).

Legend:
[1] = test system: A2780 ovarian cancer cell line; experiment: Growth inhibition of human ovarian cancer cells, 24 h exposure, Coulter cell count; type: cell-based
Experimental: (§1) The human ovarian cells were added at a density of 1×10^4 cells per well to 24-well tissue culture trays (Falcon Plastic, Becton Dickenson, Lincon Park, N.J., USA) and allowed to grow for 72 h before addition of the Ru(II) arene complexes. Stock solutions of the ruthenium compounds were made up fresh in deionised water and sonicated to ensure complete dissolution. These stock solutions were diluted with media to give final concentrations ranging between 0.1 and 100 μM. All compounds were evaluated at each concentration in duplicate wells, and complete assays were repeated a minimum of three times. Cisplatin or carboplatin was employed as a positive and comparative control in each experiment. After 24-hours exposure the drug-containing medium was removed, the cells washed with phosphate buffered saline (PBS) and fresh medium was added. Cell number was assessed after a further 72 h growth using a Coulter counter (Coulter Electronics Ltd, Luton, UK) and the IC50 values (concentration of drug causing 50% growth inhibition) calculated by linear regression analysis comparing the inhibitory effects of the drugs against the growth of untreated cells.
(§2) The cell lines and methods used are also described in Aird et al, Br. J. Cancer, (2002), 86, 1652–1657.
(§3) Using the above protocol, a number of compounds of the invention were tested on A2780 ovarian cancer cell line, on an A2780 ovarian cancer cell line resistant to cis-platin (A2780^CIS), and on an A2780 ovarian cancer cell line resistant to adriamycin (A2780^AD). Some of the compounds were tested on an A549 cell line.

[2] = test system: A2780 ovarian cancer cell line resistant to cis-platin (A2780^CIS); experiment: Growth inhibition, cis-platin resistant ovarian line; type: cell-based, human; conditions: cis-platin resistant A2780 relative to A2780
Experimental: as §1, §2, §3

[3] = test system: A2780 ovarian cancer cell line resistant to adriamycin (A2780^AD); experiment: Growth inhibition, adriamycin resistant ovarian line; type: cell-based, human; conditions: adriamycin resistant A2780 relative to A2780
Experimental: as §1, §2, §3

A549 cell line = experiment: Growth inhibition, A549 cell line; type: cell-based; conditions: A549 cells; Table 1
Experimental: as §1, §3

[4] = 24 h exposure, cell number after further 72 h growth, Table 1
[5] = comparison with 1,2-diaminoethane analogues

| Structure (SMILES) | IC50 [1, 4] [µM] | IC50 [1, 5] [µM] | A2780^CIS Fold resistance ([2]; Table 1) [fold] | A2780^CIS Fold resistance [2, 5] [fold] | A2780^AD fold resistance ([3]; Table 1) [fold] | A2780^AD fold resistance [3, 5] [fold] | IC50 (A549 cell line) [µM] |
| --- | --- | --- | --- | --- | --- | --- | --- |
| F[P-](F)(F)(F)(F)F.[Cl][Ru-]1[NH2+]c2ccccc2[NH2+]1.c1ccc(-c2ccccc2)cc1 [EX 1, [(η^6-Biphenyl)Ru(o-phenylenediamine)Cl]PF6] | 5 | 5 | 1 | 1 | 0.8 | 0.8 | – |
| F[P-](F)(F)(F)(F)F.F[P-](F)(F)(F)(F)F.Nc1ccc(-c2ccc(N)c(N)c2)cc1N.[Cl][Ru+].[Cl][Ru+].c1ccc(-c2ccccc2)cc1.c1ccc(-c2ccccc2)cc1 [EX 2, {[(η^6-Biphenyl)Ru(diaminobenzidine)Cl]PF6}2] | 52 | – | – | – | – | – | – |
| F[P-](F)(F)(F)(F)F.Nc1ccccc1N.[Cl][Ru+].c1ccc2c(c1)Cc1ccccc1C2 [EX 3, [(η^6-dihydroanthracene)Ru(o-phenylenediamine)Cl]PF6] | 7 | 7 | 5 | 5 | 2 | 2 | – |
| F[P-](F)(F)(F)(F)F.Nc1cccc(O)c1N.[Cl][Ru+].c1ccc(-c2ccccc2)cc1 [EX 4, [(η^6-Biphenyl)Ru(2,3-diaminophenol)Cl]PF6] | 32 | – | – | – | – | – | – |
| Cc1ccc(N)c(N)c1.F[P-](F)(F)(F)(F)F.[Cl][Ru+].c1ccc2c(c1)CCC2 [EX 5, [(η^6-indan)Ru(3,4-diaminotoluene)Cl]PF6] | 4 | – | – | – | – | – | – |
| Cc1ccc(C(C)C)cc1.F[P-](F)(F)(F)(F)F.Nc1ccccc1N.[Cl][Ru+] [EX 6, [(η^6-p-cymene)Ru(o-phenylenediamine)Cl]PF6] | 11 | 11 | 1 | 1 | 0.6 | 0.6 | – |
| F[P-](F)(F)(F)(F)F.Nc1ccc([N+](=O)[O-])cc1N.[Cl][Ru+].c1ccc2c(c1)CCCC2 [Example 7, [(η^6-1,2,3,4-tetrahydronaphthalene)Ru(1,2-diamino-4-nitrobenzene)Cl]PF6] | 59 | – | – | – | – | – | 148 |
| Nc1ccc2c(c1N)C(=O)c1ccccc1C2=O.[Cl-].[Cl][Ru+].c1ccc2c(c1)CCC2 [Example 8, [(η^6-indan)Ru(1,2-diaminoanthraquinone)Cl]Cl] | 15 | – | – | – | – | – | 48 |
| Nc1ccc2c(c1N)C(=O)c1ccccc1C2=O.[Cl-].[Cl][Ru+].c1ccc2c(c1)CCCC2 [Example 9, [(η^6-1,2,3,4-tetrahydronaphthalene)Ru(1,2-diaminoanthraquinone)Cl]Cl] | 37 | – | – | – | – | – | 61 |
